Test results taken from patent publication US20240287042A1, “NOVEL COMPOUND HAVING INHIBITORY ACTIVITY AGAINST PENDRIN, AND PHARMACEUTICAL USES THEREOF” (UIF (University Industry Foundation), Yonsei University, priority 2021, published 2024).

Columns and labels:
CHO-K1 cells = test: Cell viability, MTS colorimetric assay; assay type: cell-based, Chinese hamster; conditions: 24 hours; for Cytotoxicity: 30 μM; for Change in survival rate: 100 μM
Experimental: Chinese hamster ovary (CHO)-K1 cells were cultured in DMEM medium containing 10% fetal bovine serum (FBS), 100 units/ml of penicillin and 100 μg/ml streptomycin.
The cell viability was measured using the CellTiter 96® AQueous One Solution cell proliferation assay kit (Promega, Madison, WI, USA). CHO-K1 cells were cultured with medium supplemented with 10% FBS in 96-well plates for 24 hours, and then compounds or vehicle were treated in the medium, and after 24 hours, the medium was completely removed, and the MTS assay was performed as recommended in the supplier's protocol. The absorbance of Formazan was measured at a wavelength of 490 nm using an Infinite M200 microplate reader (Tecan, Austria).

human WT ANO1 = target: T1, human WT ANO1 (Homo sapiens, UniProt Q5XXA6); test: ANO1 I− transport activity, YFP fluorescence in FRT cells, ATP-activated; assay type: cell-based
T1 construct: expressed in transfected cells
T1 sequence (Q5XXA6 1-986): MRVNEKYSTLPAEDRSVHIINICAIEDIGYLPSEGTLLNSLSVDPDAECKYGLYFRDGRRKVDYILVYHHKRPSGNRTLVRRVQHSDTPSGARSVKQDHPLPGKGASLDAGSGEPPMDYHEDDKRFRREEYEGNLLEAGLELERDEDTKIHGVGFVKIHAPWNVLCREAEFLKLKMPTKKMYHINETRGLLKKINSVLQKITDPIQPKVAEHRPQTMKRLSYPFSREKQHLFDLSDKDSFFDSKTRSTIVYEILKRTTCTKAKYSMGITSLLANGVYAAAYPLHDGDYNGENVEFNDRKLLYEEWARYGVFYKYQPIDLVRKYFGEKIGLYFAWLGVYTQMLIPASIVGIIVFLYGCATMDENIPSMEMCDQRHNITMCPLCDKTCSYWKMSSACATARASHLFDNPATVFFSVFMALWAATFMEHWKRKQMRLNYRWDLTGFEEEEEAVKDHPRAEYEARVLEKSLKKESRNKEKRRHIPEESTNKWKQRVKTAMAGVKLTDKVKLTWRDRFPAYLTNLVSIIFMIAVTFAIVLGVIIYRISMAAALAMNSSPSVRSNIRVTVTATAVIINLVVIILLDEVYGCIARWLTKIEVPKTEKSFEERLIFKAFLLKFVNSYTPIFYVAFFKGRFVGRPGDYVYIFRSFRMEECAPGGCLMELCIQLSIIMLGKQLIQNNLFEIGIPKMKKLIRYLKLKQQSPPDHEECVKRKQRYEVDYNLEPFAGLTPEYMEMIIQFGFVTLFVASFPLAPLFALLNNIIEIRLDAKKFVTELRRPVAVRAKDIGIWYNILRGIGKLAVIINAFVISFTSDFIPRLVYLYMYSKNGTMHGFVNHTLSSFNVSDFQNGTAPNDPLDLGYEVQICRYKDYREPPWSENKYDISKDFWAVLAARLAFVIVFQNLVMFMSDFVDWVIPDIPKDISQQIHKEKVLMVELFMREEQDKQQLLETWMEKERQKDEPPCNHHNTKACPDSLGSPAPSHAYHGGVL
Experimental: Chinese hamster ovary (CHO)-K1 cells or LN-215 cells were cultured in DMEM medium containing 10% fetal bovine serum (FBS), 100 units/ml of penicillin and 100 μg/ml streptomycin. CHO-K1 cells or LN-215 cells were stably transfected with pcDNA3.1 encoding the halide sensor YFP-H148Q/I152L/F46L and human wild-type (WT)-SLC26A9. Fisher rat thyroid (FRT) cells stably transfected with YFP-H148Q/I152L/F46L and human wild type (WT)-CFTR or human wild type (WT)-ANO1 were cultured in DMEM/F-12 medium containing 10% fetal bovine serum (FBS), 100 units/ml of penicillin, and 100 μg/ml of streptomycin.
LN-215 cells expressing human WT SLC26A9 and YFP-F46L/H148Q/I152L, and FRT cells expressing human WT CFTR or ANO1 and YFP-F46L/H148Q/I152L were plated in 96-well microplates at a density of 2×10^4 cells per well, and cultured for 48 hours. […] After culturing at 37° C. for 10 minutes, the 96-well plate was located on the FLUOstar Omega Microplate Reader (BMG Labtech, Ortenberg, Germany) for a fluorescence assay. For assay of the activity of […], fluorescence was recorded continuously (400 ms per point) for 1 second (baseline), whereby each well was assayed individually for SLC26A9-mediated I-influx. Then, 50 μL of NaI-substituted HEPES buffered solution (replacing NaCl with NaI) was added using a liquid injector at 1 second, and YFP fluorescence was recorded for 6 seconds. […]

Row | inhibition at 30 µM (human WT ANO1; FIG. 3) [%] | Effect on ANO1 activity (human WT ANO1; 30 μM) | Compound | Cytotoxicity (CHO-K1 cells) | Change in survival rate (CHO-K1 cells)
1 | ~80 |  | Cc1ccc(C)c(N2CCN(C(=O)Cc3c(C(=O)O)[nH]c4ccc(Cl)cc34)CC2)c1 [YPI-H05, 5-chloro-3-(2-(4-(2,5-dimethylphenyl)piperazin-1-yl-)-2-oxoethyl)-1H-indole-2-carboxylic acid] | no cytotoxicity | around 10%
2 |  | weakly inhibited | Cc1ccc2[nH]c(C(=O)O)c(CC(=O)N3CCN(c4c(C)cccc4Cl)CC3)c2c1 [YPI-A4948, 3-(2-(4-(2-Chloro-6-methylphenyl)piperazin-1-yl)-2-oxoethyl)-5-methyl-1H-indole-2-carboxylic acid] | no cytotoxicity | around 10%
